# Measured values: patent publication US20240043448A1, “Small Molecule Inhibitors of KRAS G12C Mutant” (Merck Sharp & Dohme LLC, priority 2019, published 2024)
# Read-outs that look alike come from different tables or passages of the source.
# What was measured:
# phospho-ERK = experiment: Cellular phospho-ERK assay; format: cell-based; settings: NCI-H358 cells, 2 hour incubation, ratio of p-Erk vs total Erk, read-out: IC50 (nM) pERK (Cell)
# Method: NCI-H358 cells (ATCC® CRL-5807™) were cultured in T150 flask in growth medium (RPMI medium 1640-GlutaMAX™-I (ThermoFisher Scientific 61870) containing 10% fetal bovine serum (ThermoFisher Scientific 10091148)). The cells were harvested in growth medium after TrypLE (ThermoFisher scientific 12604021) digestion and were seeded in a 384-well collagen coated cell culture plate (Corning 356702) at a density of 15,000 cells/well, and incubated at 37° C., 5% CO2 overnight. The compound dose-response titrations were prepared and appropriate amounts of compounds were dispensed in a 384-well intermediate plate using an Echo 550 liquid handler. RPMI medium 1640-GlutaMAX™-I were added to the intermediate plate and transferred to 384-well cell culture plate, which was incubated at 37° C., 5% CO2 for 2 hours. After removal of medium from the plate, cells were lysed in lysis buffer from Alpha SureFire® Ultra™ Multiplex p-Erk and total Erk assay kit (PerkinElmer MPSU-PTERK) containing Halt™ Protease and Phosphotase inhibitor cocktail (ThermoFisher Scientific 78446) at room temperature with constant shaking at 300 rpm for 30 minutes. The cell lysates were then transferred to OptiPlate-384 plate (PerkinElmer 6005620) and the phosphorylation of Erk and total Erk levels were detected by Alpha SureFire Ultra Multiplex p-Erk kit (PerkinElmer MPSU-PTERK) following the manufacturer's protocol. Assay plates were read on an EnVision Multimode Plate Reader (PerkinElmer), and the ratio of p-Erk vs total Erk in each well was used as the final readout. Dose response curves were analyzed using a 4-parameter logistic model to calculate IC50 values using spotfire software.
# [1] = target: Biotinylated KRAS G12C protein (Homo sapiens (Human), UniProt P01116, C118S/C51S/C80L/G12C); experiment: SOS-catalyzed nucleotide exchange assay (TR-FRET); format: biochemical; settings: in vitro apparent potency; preincubation time of 60 minutes prior to addition of SOS
# Method: The SOS-catalyzed nucleotide exchange assay utilizes a preformed complex of recombinant biotinylated KRAS protein containing G12C/C51S/C80L/C118S mutations (183 amino acids; biotin on K10; leader sequence which is an AviTag; referred to as SEQ ID NO: 1 or “Biotinylated KRAS G12C protein” hereafter), Bodipy-GDP, and Terbium-streptavidin. Compounds are added to this complex and then after incubation for 60 minutes, the mixture is treated with recombinant SOS protein and unlabeled GTP. Small molecule inhibitors stabilize the Bodipy-GDP complex whereas the untreated protein rapidly exchanges Bodipy-GDP for unlabeled GTP resulting in reduced TR-FRET signal.
# Biotinylated KRAS G12C protein (SEQ ID NO: 1) is diluted to 2 μM in an EDTA buffer (20 mM HEPES, 150 mM sodium chloride, 10 mM EDTA, and 0.01% Tween) and incubated at room temperature for one hour. This mixture is then further diluted to 90 nM in an assay buffer (20 mM HEPES, 150 mM sodium chloride, 10 mM magnesium chloride, and 0.005% Tween) containing 15 nM of Terbium-Streptavidin (Invitrogen, catalog #PV3577) and 900 nM of Bodipy-GDP and incubated at room temperature for six hours. This solution is referred to as Biotinylated KRAS G12C mixture.
# Each test compound (10 mM stock in DMSO) is diluted in DMSO to make a 10-point, 3-fold dilution series in a 384-well low dead volume microplate (Labcyte, catalog #LP-0200). Once titrations are made, 10 nL of the diluted compounds is acoustically dispensed into a 384-well plate (Corning, catalog #3820) using an Echo 550 (Labcyte).
# Each well of the plate receives 3 μL Biotinylated KRAS G12C mixture that had been incubating for six hours and 3 μL of assay buffer using a BioRAPTR (Beckman Coulter) and is incubated at room temperature for 60 minutes. Each well then receives 3 μL of 240 nM recombinant human SOS protein and 9 mM GTP (Sigma, G8877) in assay buffer and is incubated at room temperature for 60 minutes.
# The time-resolved fluorescence resonance energy transfer signal of the plate is measured on an Envision (PerkinElmer) plate reader: Excitation filter=340 nm; emission1=495 nm; emission2=520 nm; dichroic mirror=D400/D505; delay time=100 μs. The signal of each well is determined as the ratio of the emission at 520 nm to that at 495 nm. Percent effect of each well is determined after normalization to control wells containing DMSO (no effect) or a saturating concentration of inhibitor (max effect). The apparent effect as a function of compound concentration is fit to a four parameter logistic equation.
"IC50 (phospho-ERK; Homo sapiens, NCI-H358, 2 h)",IC50 [1],IC50 (phospho-ERK),Compound
847 nM,107 nM,,"C=CC(=O)N1CCN(c2nc(=O)n3c4nc(c(F)cc24)-c2c(F)cccc2OCCCc2ccnc(C(C)C)c2-3)C[C@@H]1CC [Example 103, 2-[(3S)-3-ethyl-4-(prop-2-enoyl)piperazin-1-yl]-17,20-difluoro-6-(propan-2-yl)-11,12-dihydro-4H,10H-1,18-ethenopyrido[4,3-e]pyrimido[1,6-g][1,7,9] benzoxadiazacyclododecin-4-one]"
198 nM,47 nM,,"C=C(F)C(=O)N1CCN(c2nc(=O)n3c4nc(c(F)cc24)-c2c(F)cccc2OCCCCc2ccnc(C(C)C)c2-3)[C@@H](C)C1 [Example 85, 18,21-difluoro-2-[(2S)-4-(2-fluoroprop-2-enoyl)-2-methylpiperazin-1-yl]-6-(propan-2-yl)-10,11,12,13-tetrahydro-4H-1,19-ethenopyrido[4,3-f]pyrimido[1,6-h][1,8,10]benzoxadiazacyclotridecin-4-one]"
,1410 nM,3830 nM,"C=CC(=O)N1CCN(c2nc(=O)n3c4nc(c(Cl)cc24)-c2c(F)cccc2OCCc2ccccc2-3)[C@@H](C)C1 [Example 9, 19-chloro-16-fluoro-2-[(2S)-2-methyl-4-(prop-2-enoyl)piperazin-1-yl]-10,11-dihydro-4H-1,17-ethenodibenzo[b,h]pyrimido[6,1-f][1,5,7]oxadiazacycloundecin-4-one]"
,2.3 nM,21 nM,"C=CC(=O)N1CC(C)N(c2nc(=O)n3c4nc(c(Cl)cc24)-c2c(F)cccc2COCCc2ccnc(C(C)C)c2-3)CC1C [Example 109, 20-chloro-2-[(2S,5R)-2,5-dimethyl-4-(prop-2-enoyl)piperazin-1-yl]-17-fluoro-6-(propan-2-yl)-10,11-dihydro-1,18-ethenopyrido[3,4-e]pyrimido[6,1-c][9,2,4]benzoxadiazacyclododecin-4(13H)-one]"
,195 nM,> 30000 nM,"C=C(C#N)C(=O)N1C[C@H](C)N(c2nc(=O)n3c4nc(c(Cl)cc24)-c2c(F)ccc(F)c2OCCCc2ccnc(C(C)C)c2-3)C[C@H]1C [Example 121, 2-{(2R,5S)-4-[20-chloro-14,17-difluoro-4-oxo-6-(propan-2-yl)-11,12-dihydro-4H,10H-1,18-ethenopyrido[4,3-e]pyrimido[1,6-g][1,7,9]benzoxadiazacyclododecin-2-yl]-2,5-dimethylpiperazine-1-carbonyl}prop-2-enenitrile]"
68 nM,20 nM,,"C=CC(=O)N1C[C@H](C)N(c2nc(=O)n3c4nc(c(F)cc24)-c2cc(F)cc4cnn(c24)CCCCc2ccnc(C(C)C)c2-3)C[C@H]1C [Example 108, 2-[(2S,5R)-2,5-dimethyl-4-(prop-2-enoyl)piperazin-1-yl]-18,22-difluoro-6-(propan-2-yl)-10,11,12,13-tetrahydro-4H-1,20-(ethanediylidene)pyrido [4′,3′:12,13]pyrimido[1′,6′:1,2][1,3,7] triazacyclotridecino[5,6,7-hi]indazol-4-one]"
36 nM,5.9 nM,,"C=CC(=O)N1C[C@H](C)N(c2nc(=O)n3c4nc(c(Cl)cc24)-c2cc(F)cc(F)c2OCCCc2ccnc(C(C)C)c2-3)C[C@H]1C [Example 82, 20-chloro-2-[(2S,5R)-2,5-dimethyl-4-(prop-2-enoyl)piperazin-1-yl]-14,16-difluoro-6-(propan-2-yl)-11,12-dihydro-4H,10H-1,18-ethenopyrido[4,3-e]pyrimido[1,6-g][1,7,9]benzoxadiazacyclododecin-4-one]"
,17 nM,154 nM,"C=CC(=O)N1C[C@H](C)N(c2nc(=O)n3c4nc(c(F)cc24)-c2c(F)ccc(F)c2OCCOc2ccnc(C4CC4)c2-3)C[C@H]1C [Example 111, 6-cyclopropyl-2-[(2S,5R)-2,5-dimethyl-4-(prop-2-enoyl)piperazin-1-yl]-14,17,20-trifluoro-11,12-dihydro-4H-1,18-ethenopyrido[4,3-e]pyrimido[1,6-g][1,4,7,9]benzodioxadiazacyclododecin-4-one]"
15 nM,2.5 nM,,"C=CC(=O)N1C[C@H](C)N(c2nc(=O)n3c4nc(c(F)cc24)-c2c(F)ccc(F)c2OCCCc2ccnc(C(C)C)c2-3)C[C@H]1C [Example 95, 2-[(2S,5R)-2,5-dimethyl-4-(prop-2-enoyl)piperazin-1-yl]-14,17,20-trifluoro-6-(propan-2-yl)-11,12-dihydro-4H,10H-1,18-(ethanediylidene)pyrido[4,3-e]pyrimido[1,6-g][1,7,9]benzoxadiazacyclododecin-4-one]"
,15 nM,93 nM,"C=CC(=O)N1CCN(c2nc(=O)n3c4nc(c(F)cc24)-c2cccc4cnn(c24)CCCOc2ccnc(C(C)C)c2-3)[C@H](C)C1 [Example 3b, 22-fluoro-2-[(2S)-2-methyl-4-(prop-2-enoyl)piperazin-1-yl]-6-(propan-2-yl)-12,13-dihydro-4H,11H-1,20-ethenopyrido[4′,3′:2,3]pyrimido[1′,6′:4,5][1,4,6,10]oxatriazacyclotridecino[8,9,10-hi]indazol-4-one]"
,10 nM,35 nM,"C=CC(=O)N1CCN(c2nc(=O)n3c4nc(c(F)cc24)-c2c(F)cccc2COCCc2ccnc(C(C)C)c2-3)[C@@H](C)C1 [Example 18a, 17,20-difluoro-2-[(2S)-2-methyl-4-(prop-2-enoyl)piperazin-1-yl]-6-(propan-2-yl)-10,11-dihydro-1,18-ethenopyrido[3,4-e]pyrimido[6,1-c][9,2,4]benzoxadiazacyclododecin-4(13H)-one]"
33 nM,5.7 nM,,"[2H]C1([2H])Oc2ccc(F)c(F)c2-c2nc3c(cc2F)c(N2C[C@@H](C)N(C(=O)C=C)C[C@@H]2C)nc(=O)n3-c2c(ccnc2C(C)C)OC1([2H])[2H] [Example 64, 2-[(2S,5R)-2,5-Dimethyl-4-(prop-2-enoyl)piperazin-1-yl]-16,17,20-trifluoro-6-(propan-2-yl)-11,12-di[(^2H)hydro](11,12-^2H2)-4H-1,18-(ethanediylidene)pyrido [4,3-e]pyrimido[1,6-g][1,4,7,9] benzodioxadiazacyclo-dodecin-4-one]"

Compound,"IC50 (phospho-ERK; Homo sapiens, NCI-H358, 2 h)",IC50 [1],IC50 (phospho-ERK)
"[(2S)-4-[17,20-difluoro-4- oxo-6-(propan-2-yl)-11,12- dihydro-4H-1,18- (ethanediylidene)pyrido[4,3- e]pyrimido[1,6-g][1,4,7,9] benzodioxadiazacyclo- dodecin-2-yl]-1-(prop-2- enoyl)piperazin-2- yl]acetonitrile [Example 14a]",,8.1 nM,1240 nM
"C=CC(=O)N1CCN(c2nc(=O)n3c4nc(c(F)cc24)-c2c(F)cccc2CCCOc2ccnc(C(C)C)c2-3)[C@@H](C)C1 (single isomer, unassigned) [Example 20b]",,1380 nM,4760 nM
